Structures can show the parent of a compound that is named as a salt.
Each compound was assayed against PI3Kδ (p110δ/p85α) (Homo sapiens (Human), UniProt O00329) (assay: PI3Kδ Scintillation Proximity Assay (Example A3)). Settings: 20 μM ATP, 20 μM PIP2, 4 nM PI3Kδ, read-out: PI3Kδ SPA IC50.
Format: biochemical
Summary of the method: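 SPA with 4 nM p110δ/p85α, 20 μM PIP2, 20 μM ATP plus [γ-^33P]ATP, in 20 mM MOPS pH 6.7, 10 mM MgCl2, 5 mM DTT, 0.03% CHAPS, 0.5% DMSO, room temperature. Stopped with EDTA/ATP, WGA SPA beads, overnight shaking, scintillation counting. IC50 from % control activity vs log concentration.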

Chain of PI3Kδ (p110δ/p85α) (O00329 whole entry): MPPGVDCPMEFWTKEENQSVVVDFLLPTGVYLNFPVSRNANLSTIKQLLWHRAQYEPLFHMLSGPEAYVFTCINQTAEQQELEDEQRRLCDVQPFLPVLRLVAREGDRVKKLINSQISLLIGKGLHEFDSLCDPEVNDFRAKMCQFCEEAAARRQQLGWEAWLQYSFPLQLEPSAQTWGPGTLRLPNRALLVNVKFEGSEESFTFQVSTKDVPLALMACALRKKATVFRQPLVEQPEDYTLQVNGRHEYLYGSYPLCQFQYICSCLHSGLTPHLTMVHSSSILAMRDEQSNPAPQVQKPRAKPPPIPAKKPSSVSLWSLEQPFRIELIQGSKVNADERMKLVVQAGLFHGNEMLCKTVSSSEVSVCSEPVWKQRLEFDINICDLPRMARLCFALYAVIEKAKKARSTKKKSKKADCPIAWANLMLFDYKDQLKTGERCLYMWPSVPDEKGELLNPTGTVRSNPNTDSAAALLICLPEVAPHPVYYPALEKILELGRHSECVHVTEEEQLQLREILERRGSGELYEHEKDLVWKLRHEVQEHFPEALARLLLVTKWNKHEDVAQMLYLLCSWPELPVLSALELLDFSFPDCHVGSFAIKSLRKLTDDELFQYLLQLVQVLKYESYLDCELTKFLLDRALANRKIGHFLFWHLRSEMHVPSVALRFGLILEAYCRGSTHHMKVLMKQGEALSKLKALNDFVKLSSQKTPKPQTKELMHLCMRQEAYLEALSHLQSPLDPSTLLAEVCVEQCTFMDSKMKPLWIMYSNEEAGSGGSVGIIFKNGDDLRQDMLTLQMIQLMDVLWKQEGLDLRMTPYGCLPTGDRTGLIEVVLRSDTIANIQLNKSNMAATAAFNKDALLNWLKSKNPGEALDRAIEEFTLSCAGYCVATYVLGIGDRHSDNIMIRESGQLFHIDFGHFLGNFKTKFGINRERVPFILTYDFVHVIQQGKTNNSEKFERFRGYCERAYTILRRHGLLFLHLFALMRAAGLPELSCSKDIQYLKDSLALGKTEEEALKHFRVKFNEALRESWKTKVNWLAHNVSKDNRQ
Chain of PI3Kδ (p110δ/p85α) (P27986 whole entry partner): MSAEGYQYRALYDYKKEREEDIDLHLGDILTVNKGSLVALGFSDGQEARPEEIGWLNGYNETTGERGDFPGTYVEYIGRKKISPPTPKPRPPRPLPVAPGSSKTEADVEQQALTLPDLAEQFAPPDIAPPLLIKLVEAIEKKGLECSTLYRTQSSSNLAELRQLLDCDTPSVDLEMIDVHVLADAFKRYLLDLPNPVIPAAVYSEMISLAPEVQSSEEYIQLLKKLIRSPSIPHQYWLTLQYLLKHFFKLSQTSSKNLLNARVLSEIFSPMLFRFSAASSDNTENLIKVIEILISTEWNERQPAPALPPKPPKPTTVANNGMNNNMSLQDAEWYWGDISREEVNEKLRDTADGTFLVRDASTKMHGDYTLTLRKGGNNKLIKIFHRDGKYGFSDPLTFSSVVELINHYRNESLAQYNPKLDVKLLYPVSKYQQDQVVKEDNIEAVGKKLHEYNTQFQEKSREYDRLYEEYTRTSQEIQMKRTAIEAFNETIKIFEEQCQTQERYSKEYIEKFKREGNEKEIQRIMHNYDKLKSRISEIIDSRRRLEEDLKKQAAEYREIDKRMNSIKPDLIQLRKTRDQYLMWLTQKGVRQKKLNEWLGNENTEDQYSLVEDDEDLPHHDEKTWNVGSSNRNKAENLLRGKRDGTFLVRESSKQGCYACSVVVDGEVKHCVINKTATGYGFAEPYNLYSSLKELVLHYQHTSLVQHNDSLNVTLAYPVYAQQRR

| Compound | IC50 |
| --- | --- |
| COc1c(C(C)n2nc(C)c3c(N)ncnc32)cc(Cl)c(C)c1-c1ccc(C(=O)NCCO)nc1 (stereo not drawn) [Example 23, 5-(3-(1-(4-amino-3-methyl-1H-pyrazolo[3,4-d]pyrimidin-1-yl)ethyl)-5-chloro-2-methoxy-6-methylphenyl)-N-(2-hydroxyethyl)picolinamide trifluoroacetate] | < 0.01 µM |
| COc1c(C(C)n2nc(C)c3c(N)ncnc32)cc(Cl)c(F)c1C1CN(C)C1 (stereo not drawn) [Example 72] | < 0.01 µM |
| CCOc1c(C(C)n2nc(C)c3c(N)ncnc32)cc(Cl)c(C)c1C1CN(C[C@H](C)O)C1 (stereo partly drawn) [Example 96, (2S)-1-(3-{3-[1-(4-Amino-3-methyl-1H-pyrazolo[3,4-d]pyrimidin-1-yl)ethyl]-5-chloro-2-ethoxy-6-methylphenyl}azetidin-1-yl)propan-2-ol bis(trifluoroacetate)] | < 0.01 µM |
| CCOc1c(C(C)n2nc(C)c3c(N)ncnc32)cc(Cl)c(C)c1C1CN(C(=O)[C@H](C)O)C1 (stereo partly drawn) [Example 99, (2S)-1-(3-{3-[1-(4-Amino-3-methyl-1H-pyrazolo[3,4-d]pyrimidin-1-yl)ethyl]-5-chloro-2-ethoxy-6-methylphenyl}azetidin-1-yl)-1-oxopropan-2-ol trifluoroacetate] | < 0.01 µM |
| CNC(=O)[C@@H](C)N1CC(c2c(C)c(Cl)cc(C(C)n3nc(C)c4c(N)ncnc43)c2OC)C1 (stereo partly drawn) [Example 110, (2R)-2-(3-{3-[1-(4-Amino-3-methyl-1H-pyrazolo[3,4-d]pyrimidin-1-yl)ethyl]-5-chloro-2-methoxy-6-methylphenyl}azetidin-1-yl)-N-methylpropanamide trifluoroacetate] | < 0.01 µM |
| COc1c(C(C)n2nc(C)c3c(N)ncnc32)cc(Cl)c(C)c1C1CN(C(CO)C(F)(F)F)C1 (stereo not drawn) [Example 113, 2-(3-{3-[1-(4-Amino-3-methyl-1H-pyrazolo[3,4-d]pyrimidin-1-yl)ethyl]-5-chloro-2-methoxy-6-methylphenyl}azetidin-1-yl)-3,3,3-trifluoropropan-1-ol] | < 0.01 µM |
| CCOc1c(C(C)n2nc(C)c3c(N)ncnc32)cc(Cl)c(F)c1C1CN(C[C@H](C)O)C1 (stereo partly drawn) [Example 149, (2S)-1-(3-{3-[1-(4-Amino-3-methyl-1H-pyrazolo[3,4-d]pyrimidin-1-yl)ethyl]-5-chloro-2-ethoxy-6-fluorophenyl}azetidin-1-yl)propan-2-ol] | < 0.01 µM |
| COc1c(C(C)n2nc(C)c3c(N)ncnc32)cc(Cl)c(C)c1C1CN([C@H](C)CO)C1 (stereo partly drawn) [Example 156, (2R)-2-(3-{3-[1-(4-Amino-3-methyl-1H-pyrazolo[3,4-d]pyrimidin-1-yl)ethyl]-5-chloro-2-methoxy-6-methylphenyl}azetidin-1-yl)propan-1-ol] | < 0.01 µM |
| COc1c(C(C)n2nc(C)c3c(N)ncnc32)cc(Cl)c(C)c1C1CN([C@H](C)C(=O)N(C)C)C1 (stereo partly drawn) [Example 159, (2R)-2-(3-{3-[1-(4-Amino-3-methyl-1H-pyrazolo[3,4-d]pyrimidin-1-yl)ethyl]-5-chloro-2-methoxy-6-methylphenyl}azetidin-1-yl)-N,N-dimethylpropanamide] | < 0.01 µM |
| COc1c(C(C)n2nc(C)c3c(N)ncnc32)cc(Cl)c(C)c1-c1ccnc(C(=O)N(C)C)c1 (stereo not drawn) [Example 200, 4-(3-(1-(4-Amino-3-methyl-1H-pyrazolo[3,4-d]pyrimidin-1-yl)ethyl)-5-chloro-2-methoxy-6-methylphenyl)-N,N-dimethylpicolinamide bis(2,2,2-trifluoroacetate)] | < 0.01 µM |
| CCOc1c(C(C)n2nc(C)c3c(N)ncnc32)cc(Cl)c(C)c1-c1ccc(C(=O)N(C)C)cn1 (stereo not drawn) [Example 208, 6-{3-[1-(4-Amino-3-methyl-1H-pyrazolo[3,4-d]pyrimidin-1-yl)ethyl]-5-chloro-2-ethoxy-6-methylphenyl}-N,N-dimethylnicotinamide bis(trifluoroacetate)] | < 0.01 µM |
| CCOc1c(C(C)n2nc(C)c3c(N)ncnc32)cc(Cl)c(C#N)c1C1CN(C[C@H](C)O)C1 (stereo partly drawn) [Example 220, 4-[1-(4-Amino-3-methyl-1H-pyrazolo[3,4-d]pyrimidin-1-yl)ethyl]-6-chloro-3-ethoxy-2-{1-[(2S)-2-hydroxypropyl]azetidin-3-yl}benzonitrile] | < 0.01 µM |

— patent publication US9932341B2, “Use of pyrazolopyrimidine derivatives for the treatment of PI3K-delta related disorders” (Incyte Corporation, priority 2013, dated 2018)
